Legend:
[1] = cited from earlier work
OATP1B1 = molecular target: T1, OATP1B1 (Homo sapiens, UniProt Q9Y6L6); assay: Transport kinetics of substrate uptake in OATP1B1-HEK293 cells; assay type: cell-based; settings: OATP1B1 mediated uptake
T1 sequence (Q9Y6L6 1-691): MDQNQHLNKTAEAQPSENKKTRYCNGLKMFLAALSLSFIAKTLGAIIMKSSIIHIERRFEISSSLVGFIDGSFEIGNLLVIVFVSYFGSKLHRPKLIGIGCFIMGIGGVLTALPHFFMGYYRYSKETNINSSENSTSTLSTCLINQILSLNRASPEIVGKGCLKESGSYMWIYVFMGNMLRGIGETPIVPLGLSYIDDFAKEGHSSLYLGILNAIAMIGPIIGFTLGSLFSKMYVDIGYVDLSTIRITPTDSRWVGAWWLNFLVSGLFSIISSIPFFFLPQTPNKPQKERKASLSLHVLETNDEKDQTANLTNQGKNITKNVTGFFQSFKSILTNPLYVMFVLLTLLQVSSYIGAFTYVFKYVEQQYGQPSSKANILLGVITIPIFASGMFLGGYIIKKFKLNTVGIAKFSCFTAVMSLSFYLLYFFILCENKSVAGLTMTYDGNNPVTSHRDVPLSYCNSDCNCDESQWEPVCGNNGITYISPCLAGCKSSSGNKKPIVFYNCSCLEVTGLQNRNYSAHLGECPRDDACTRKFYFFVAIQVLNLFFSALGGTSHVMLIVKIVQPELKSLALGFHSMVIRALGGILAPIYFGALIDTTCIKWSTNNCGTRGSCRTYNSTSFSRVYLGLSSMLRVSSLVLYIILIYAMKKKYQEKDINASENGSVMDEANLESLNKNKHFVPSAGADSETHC

OATP1B3 = molecular target: T2, OATP1B3 (Homo sapiens, UniProt Q9NPD5)
T2 sequence (Q9NPD5 1-702): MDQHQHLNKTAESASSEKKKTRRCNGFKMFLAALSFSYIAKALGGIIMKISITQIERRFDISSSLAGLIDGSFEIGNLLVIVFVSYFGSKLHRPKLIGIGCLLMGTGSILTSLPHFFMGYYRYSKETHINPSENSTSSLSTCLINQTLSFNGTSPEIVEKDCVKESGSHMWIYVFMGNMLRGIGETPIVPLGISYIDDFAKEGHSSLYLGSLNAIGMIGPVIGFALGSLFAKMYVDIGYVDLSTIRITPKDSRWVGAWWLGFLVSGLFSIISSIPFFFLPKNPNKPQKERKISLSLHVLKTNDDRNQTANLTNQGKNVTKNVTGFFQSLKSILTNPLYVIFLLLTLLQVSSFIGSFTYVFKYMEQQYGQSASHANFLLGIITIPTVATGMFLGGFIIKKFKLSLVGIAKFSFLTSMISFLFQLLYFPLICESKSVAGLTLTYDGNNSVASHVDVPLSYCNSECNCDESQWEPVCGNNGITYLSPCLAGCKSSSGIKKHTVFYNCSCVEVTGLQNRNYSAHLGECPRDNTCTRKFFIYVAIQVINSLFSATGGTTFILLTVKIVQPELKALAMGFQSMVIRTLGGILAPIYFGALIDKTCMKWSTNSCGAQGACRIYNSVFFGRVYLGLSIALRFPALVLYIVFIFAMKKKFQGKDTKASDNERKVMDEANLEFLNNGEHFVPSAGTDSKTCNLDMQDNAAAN

Row | Structure (SMILES) | increase of atorvastatin AUC [1] [fold] | Km (OATP1B1) [µM] | Vmax (OATP1B1) [pmol/mg protein/min] | Vmax/Km (OATP1B3) [μL/mg protein/min]
1 | CC[C@H]1OC(=O)[C@H](C)[C@@H](O[C@H]2C[C@@](C)(OC)[C@@H](O)[C@H](C)O2)[C@H](C)[C@@H](O[C@@H]2O[C@H](C)C[C@H](N(C)C)[C@H]2O)[C@](C)(OC)C[C@@H](C)C(=O)[C@H](C)[C@@H](O)[C@]1(C)O [clarithromycin, Clarithromycin] | 4.5 |  |  | 
2 | C[C@]12CC[C@@H]3c4ccc(O)cc4CC[C@H]3[C@@H]1CC[C@@H]2O[C@@H]1O[C@H](C(=O)O)[C@@H](O)[C@H](O)[C@H]1O [estradiol-17β-glucuronide] |  | 12.2 ± 5.94 | 15.44 ± 3.44 | 0.86

— paper PMC3361267 (Journal of Medicinal Chemistry, 2012)
